Assay results from patent US12673944B2, “Compounds having inhibitory activity against glucosylceramide synthase or pharmaceutically acceptable salt thereof, processes for preparing the same, and pharmaceutical compositions comprising the same” (YUHAN CORPORATION, priority 2019, dated 2026).
pIC50: −log10 of the molar value.

Assays:
[1] = test system: GM1 production in Jurkat cells; experiment: cells; type: cell-based; conditions: Homo sapiens, Jurkat, 72 h
[2] = biological target: T1, glucosylceramide synthase (GCS) (Homo sapiens, UniProt Q16739); experiment: GCS enzyme inhibition assay (A549 cell lysate, NBD C6-ceramide, HPLC fluorescence); type: biochemical; conditions: inhibitory activity against GCS, 37° C., 90 minutes
T1 construct: The obtained supernatant was used; host or cells: A549 cells (lysate supernatant after sonication)
T1 sequence (Q16739 1-394): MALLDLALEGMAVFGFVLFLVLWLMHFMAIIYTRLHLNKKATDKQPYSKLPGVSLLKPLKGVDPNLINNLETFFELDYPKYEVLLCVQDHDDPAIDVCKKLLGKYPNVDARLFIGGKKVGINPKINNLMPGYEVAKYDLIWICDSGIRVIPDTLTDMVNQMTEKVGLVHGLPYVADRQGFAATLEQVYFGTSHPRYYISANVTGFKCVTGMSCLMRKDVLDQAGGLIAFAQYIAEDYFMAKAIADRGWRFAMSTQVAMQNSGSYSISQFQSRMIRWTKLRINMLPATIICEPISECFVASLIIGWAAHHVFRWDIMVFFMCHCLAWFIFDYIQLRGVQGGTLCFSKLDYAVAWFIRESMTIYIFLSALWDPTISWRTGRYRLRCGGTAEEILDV
Procedure: Ibiglustat, known as a GCS inhibitor, was used as a control.
After the cells attached to the culture dish were washed with phosphate buffered saline (PBS), the cells were scraped off with a cell scraper and then centrifuged (4000 rpm, 3 min, 4° C.) to collect the cells in a 50 ml tube. The cell pellets were suspended in a lysis buffer (50 mM HEPES, pH 7.3, containing 1× the protease/phosphatase inhibitor cocktail), lysed by sonication, and then the lysate was centrifuged (13000 rpm, 10 min, 4° C.). The obtained supernatant was used for the quantitative analysis of proteins. The amount of proteins was measured using the BCA protein assay kit, using bovine serum albumin as a standard.
Enzymatic reactions were initiated by sequentially adding the following reaction materials to a 96 deep-well plate. Thereafter, the enzymatic reactions were performed at 37° C. for 90 minutes.
The enzymatic reactions were stopped by adding 100 μl of chloroform/methanol (2:1, v/v). After vortexing for 15 seconds, each mixture was centrifuged (4000 rpm, 10 min, 18° C.). The lower layer (50 μl) was transferred to a new 96 deep-well plate and dried with a reduced concentrator.
Data analysis was performed by the following equations. % Area(Sample)=Area(GlcCer)/[Area(Cer)+Area(GlcCer)]×100 % GCS activity=[Area(Sample)−Area(ibiglustat)]/[Area(DMSO)−Area(ibiglustat)]×100

Row | SMILES | pIC50 [1] | pIC50 [2]
1 | O=C(NC1CCOc2cc(-c3ccc(F)cc3)ccc21)O[C@@H]1CN2CCC1CC2 (stereo partly drawn) [Example 13, (S)-quinuclidin-3-yl (7-(4-fluorophenyl)chroman-4-yl)carbamate] | 7.37 | 8.07
2 | CC(C)(C)c1cccc(-c2ccc3c(c2)OCCC3NC(=O)O[C@@H]2CN3CCC2CC3)c1 (stereo partly drawn) [Example 25, (S)-quinuclidin-3-yl (7-(3-(tert-butyl)phenyl)chroman-4-yl)carbamate] | 8.97 | 9.19
3 | CCOc1ccc(-c2ccc3c(c2)OCC(C)(C)C3NC(=O)O[C@@H]2CN3CCC2CC3)c(C)c1 (stereo partly drawn) [Example 275, (S)-quinuclidin-3-yl (7-(4-ethoxy-2-methylphenyl)-3,3-dimethylchroman-4-yl)carbamate] | 8.59 | 9.08
4 | CC1(C)COc2cc(-c3cccc(C#N)c3)ccc2C1NC(=O)O[C@@H]1CN2CCC1CC2 (stereo partly drawn) [Example 170, (S)-quinuclidin-3-yl (7-(3-cyanophenyl)-3,3-dimethylchroman-4-yl)carbamate] | 8.23 | 9.38
5 | Cc1ccc(-c2ccc3c(c2)OCC(C)(C)C3NC(=O)O[C@@H]2CN3CCC2CC3)cc1F (stereo partly drawn) [Example 228, (S)-quinuclidin-3-yl (7-(3-fluoro-4-methylphenyl)-3,3-dimethylchroman-4-yl)carbamate] | 8.89 | 9.26
6 | COc1ccc(-c2ccc3c(c2)OCC(C)(C)C3NC(=O)O[C@@H]2CN3CCC2CC3)cc1Cl (stereo partly drawn) [Example 117, (S)-quinuclidin-3-yl (7-(3-chloro-4-methoxyphenyl)-3,3-dimethylchroman-4-yl)carbamate] | 8.35 | 8.78
7 | CC(C)(C)c1ccc(-c2ccc3c(c2)OCC(C)(C)C3NC(=O)O[C@@H]2CN3CCC2CC3)cc1 (stereo partly drawn) [Example 193, (S)-quinuclidin-3-yl (7-(4-(tert-butyl)phenyl)-3,3-dimethylchroman-4-yl)carbamate] | 9.34 | 9.29
8 | COc1cc2c(cc1-c1ccc(OCC(C)C)cc1)OCC(C)(C)C2NC(=O)O[C@@H]1CN2CCC1CC2 (stereo partly drawn) [Example 366, (S)-quinuclidin-3-yl (7-(4-isobutoxyphenyl)-6-methoxy-3,3-dimethylchroman-4-yl)carbamate] | 9.15 | 9.72
9 | CC1(C)COc2cc(-c3ccc4c(c3)CCCO4)ccc2C1NC(=O)O[C@@H]1CN2CCC1CC2 (stereo partly drawn) [Example 163, (S)-quinuclidin-3-yl (3′,3′-dimethyl-[6,7′-bichroman]-4′-yl)carbamate] | 9.30 | 9.23
10 | Cn1ncc2ccc(-c3ccc4c(c3)OCCC4NC(=O)O[C@@H]3CN4CCC3CC4)cc21 (stereo partly drawn) [Example 50, (S)-quinuclidin-3-yl (7-(1-methyl-1H-indazol-6-yl)chroman-4-yl)carbamate] | 7.59 | 8.40
11 | COc1ccc(-c2cc3c(cc2F)C(NC(=O)O[C@@H]2CN4CCC2CC4)C(C)(C)CO3)cc1 (stereo partly drawn) [Example 336, (S)-quinuclidin-3-yl (6-fluoro-7-(4-methoxyphenyl)-3,3-dimethylchroman-4-yl)carbamate] | 8.46 | 9.57
12 | O=C(NC1CCSc2cc(-c3cc(Cl)ccc3Cl)ccc21)O[C@@H]1CN2CCC1CC2 (stereo partly drawn) [Example 323, (S)-quinuclidin-3-yl (7-(2,5-dichlorophenyl)thiochroman-4-yl)carbamate] | 7.58 | 9.20
13 | COc1cc2c(cc1-c1cccc(Cl)c1)OCC(C)(C)C2NC(=O)O[C@@H]1CN2CCC1CC2 (stereo partly drawn) [Example 351, (S)-quinuclidin-3-yl (7-(3-chlorophenyl)-6-methoxy-3,3-dimethylchroman-4-yl)carbamate] | 8.77 | 9.35
14 | CC1(C)COc2cc(-c3ccc(F)c(F)c3F)ccc2C1NC(=O)O[C@@H]1CN2CCC1CC2 (stereo partly drawn) [Example 217, (S)-quinuclidin-3-yl (3,3-dimethyl-7-(2,3,4-trifluorophenyl)chroman-4-yl)carbamate] | 8.13 | 9.26
15 | CCOc1cccc(-c2ccc3c(c2)SCCC3NC(=O)O[C@@H]2CN3CCC2CC3)c1 (stereo partly drawn) [Example 324, (S)-quinuclidin-3-yl (7-(3-ethoxyphenyl)thiochroman-4-yl)carbamate] | 7.84 | 8.90
16 | CC1(C)COc2cc(-c3ccccc3F)ccc2C1NC(=O)O[C@@H]1CN2CCC1CC2 (stereo partly drawn) [Example 156, (S)-quinuclidin-3-yl (7-(2-fluorophenyl)-3,3-dimethylchroman-4-yl)carbamate] | 9.57 | 9.54
17 | CC1(C)COc2cc(-c3cccc(Cl)c3Cl)ccc2C1NC(=O)O[C@@H]1CN2CCC1CC2 (stereo partly drawn) [Example 235, (S)-quinuclidin-3-yl (7-(2,3-dichlorophenyl)-3,3-dimethylchroman-4-yl)carbamate] | 8.15 | 9.12
18 | COCOc1cccc(-c2ccc3c(c2)OCCC3NC(=O)O[C@@H]2CN3CCC2CC3)c1 (stereo partly drawn) [Example 6, (S)-quinuclidin-3-yl (7-(3-(methoxymethoxy)phenyl)chroman-4-yl)carbamate] | 8.14 | 9.17
19 | O=C(NC1CCSc2cc(-c3cccc(OC(F)(F)F)c3)ccc21)O[C@@H]1CN2CCC1CC2 (stereo partly drawn) [Example 320, (S)-quinuclidin-3-yl (7-(3-(trifluoromethoxy)phenyl)thiochroman-4-yl)carbamate] | 7.86 | 8.82
20 | CCOc1ccc(-c2cc3c(cc2OC)C(NC(=O)O[C@@H]2CN4CCC2CC4)C(C)(C)CO3)cc1 (stereo partly drawn) [Example 356, (S)-quinuclidin-3-yl (7-(4-ethoxyphenyl)-6-methoxy-3,3-dimethylchroman-4-yl)carbamate] | 8.47 | 9.32
21 | COc1ccc(OC)c(-c2ccc3c(c2)OCC(C)(C)C3NC(=O)O[C@@H]2CN3CCC2CC3)c1 (stereo partly drawn) [Example 126, (S)-quinuclidin-3-yl (7-(2,5-dimethoxyphenyl)-3,3-dimethylchroman-4-yl)carbamate] | 9.07 | 9.24
22 | COc1cc2c(cc1-c1ccsc1)OCC(C)(C)C2NC(=O)O[C@@H]1CN2CCC1CC2 (stereo partly drawn) [Example 357, (S)-quinuclidin-3-yl (6-methoxy-3,3-dimethyl-7-(thiophen-3-yl)chroman-4-yl)carbamate] | 8.40 | 9.35
23 | Cc1ccccc1-c1ccc2c(c1)OCC(C)(C)C2NC(=O)O[C@@H]1CN2CCC1CC2 (stereo partly drawn) [Example 270, (S)-quinuclidin-3-yl (3,3-dimethyl-7-(o-tolyl)chroman-4-yl)carbamate] | 9.00 | 9.11
24 | O=C(NC1CCOc2cc(-c3cccc4cnccc34)ccc21)O[C@@H]1CN2CCC1CC2 (stereo partly drawn) [Example 54, (S)-quinuclidin-3-yl (7-(isoquinolin-5-yl)chroman-4-yl)carbamate] | 7.85 | 8.67
25 | CCOc1ccc(-c2ccc3c(c2)OCCC3NC(=O)O[C@@H]2CN3CCC2CC3)cc1 (stereo partly drawn) [Example 22, (S)-quinuclidin-3-yl (7-(4-ethoxyphenyl)chroman-4-yl)carbamate] | 7.47 | 8.40
26 | COc1ccc(-c2ccc3c(c2)OCC(C)(C)C3NC(=O)O[C@@H]2CN3CCC2CC3)cc1C (stereo partly drawn) [Example 115, (S)-quinuclidin-3-yl (7-(4-methoxy-3-methylphenyl)-3,3-dimethylchroman-4-yl)carbamate] | 8.43 | 8.73
27 | O=C(NC1CCOc2ccc(-c3ccc(F)cc3)cc21)O[C@@H]1CN2CCC1CC2 (stereo partly drawn) [Example 85, (S)-quinuclidin-3-yl (6-(4-fluorophenyl)chroman-4-yl)carbamate] | 6.65 | 8.01
